US20200377863A1, “MODEL SYSTEM OF LIVER FIBROSIS AND METHOD OF MAKING AND USING THE SAME” (Wake Forest University Health Sciences, priority 2017, published 2020)

What was measured:
[1] = system: implanted liver organoids; experiment: Effect of CCl4 treatment on liver organoids implanted on mouse liver; assay type: in vivo, nude mice; settings: 4 μl/g CCl4 in olive oil (1:1), bi-weekly subcutaneous injections
Experimental: FIG. 3. The effect of CCl4 treatment on implanted liver organoids. Liver organoids were inserted on top of mouse livers via a small hole carved with a 8 mm biopsy punch and immobilized with fibrin glue. Some of the mice were treated with 4 μl/g CCl4, via bi-weekly subcutaneous injections. Liver organoids were harvested after 1 and 3 weeks and immune-stained for human hepatocytes (Hep-1) and proliferating cells (PCNA). Implant margins are drawn.
Yet, the in vitro culture conditions lack multiple factors present in vivo including components of the blood and immune cells, to mention a few. Accordingly, we implanted organoids on top the liver of nude mice by creating a small hole with a biopsy punch and immobilized them with fibrin glue. […] In parallel, we treated some on the implanted mice with […] of CCl4 in olive oil (1:1), via bi-weekly subcutaneous injections. […] Neovascularization was also observed within the organoids, probably due to CCl4-induced injury of the host liver.

LX-2 = experiment: Western blot of EZH2 activity and PRC2 components in LX-2 cells incubated with TGFβ; assay type: cell-based; settings: LX-2 cells treated with TGFβ for 24 or 48 hours; FIG. 4C, 4D
Experimental: (§1) FIG. 4A-FIG. 4F. Analysis of LX-2 cells. FIG. 4A: Western blot comparison of αSMA and PRC2 components/markers in Myofibroblasts and LX-2. FIG. 4B: Densitometry analysis of Myofibroblast vs. LX-2 western blot. FIG. 4C: Western blot analysis of αSMA and PRC2 components/markers in LX-2 cells treated with TGFβ for 24 or 48 hours. FIG. 4D: Densitometry analysis of TGFβ treated LX-2. FIG. 4E: Western blot analysis of EZH2 marker (H3K27me3) for EZH2 activity in myofibroblasts transitioned from Mesenchymal Stem Cells treated with GSK-126, a chemical inhibitor of EZH2. DMSO is a vehicle control.
In the fibrotic liver tissue, about 90% of myofibroblasts are derived from HSC (Liedtke, C., et al., Experimental liver fibrosis research: update on animal models, legal issues and translational aspects. Fibrogenesis Tissue Repair, 2013. 6(1): p. 19), and EZH2 may be an epigenetic regulator of HSC activation and transition into myofibroblast. It was shown that, like myofibroblasts (MF-10), the HSC cell line (LX-2) expresses EZH2 and the PRC components in vitro (FIG. 4A, FIG. 4B).

EZH2 [2] = target: T1, EZH2 (Homo sapiens, UniProt Q15910); experiment: Western blot and densitometry of EZH2 activity marker H3K27me3 in fibroblasts treated with GSK-126; assay type: cell-based
T1 construct: endogenous in cells; host or cells: myofibroblasts transitioned from mesenchymal stem cells (called tumor-associated fibroblasts, TAF)
Experimental: as §1

EZH2 [3] = settings: lymphoma and non-small cell lung cancer cell lines in vitro; cited from earlier work
[4] = system: cancer cell lines that have EZH2 activating mutations; settings: cited from earlier work
[5] = system: cells that do not carry activating EZH2 mutations; settings: high doses; cited from earlier work

T1 sequence (Q15910 whole entry, species assumed): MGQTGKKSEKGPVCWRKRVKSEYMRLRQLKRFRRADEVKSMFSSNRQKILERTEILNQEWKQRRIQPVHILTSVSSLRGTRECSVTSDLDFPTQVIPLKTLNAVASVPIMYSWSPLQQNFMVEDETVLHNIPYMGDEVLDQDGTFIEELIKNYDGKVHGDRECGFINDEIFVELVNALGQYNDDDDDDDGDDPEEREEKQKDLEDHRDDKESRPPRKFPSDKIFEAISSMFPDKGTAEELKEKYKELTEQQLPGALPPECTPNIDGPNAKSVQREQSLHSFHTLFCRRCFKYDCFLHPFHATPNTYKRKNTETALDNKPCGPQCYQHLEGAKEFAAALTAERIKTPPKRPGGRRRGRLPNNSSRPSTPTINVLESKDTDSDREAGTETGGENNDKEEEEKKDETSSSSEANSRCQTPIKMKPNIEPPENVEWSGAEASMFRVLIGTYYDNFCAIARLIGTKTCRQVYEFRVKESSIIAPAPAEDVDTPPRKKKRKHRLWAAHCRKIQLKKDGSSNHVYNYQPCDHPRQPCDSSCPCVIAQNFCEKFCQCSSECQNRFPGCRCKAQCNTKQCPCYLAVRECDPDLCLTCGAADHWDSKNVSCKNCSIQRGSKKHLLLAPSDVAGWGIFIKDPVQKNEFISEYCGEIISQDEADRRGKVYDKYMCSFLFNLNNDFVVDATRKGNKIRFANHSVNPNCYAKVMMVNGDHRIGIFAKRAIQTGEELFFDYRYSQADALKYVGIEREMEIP
T1 sequence (Q15022 whole entry partner, species assumed): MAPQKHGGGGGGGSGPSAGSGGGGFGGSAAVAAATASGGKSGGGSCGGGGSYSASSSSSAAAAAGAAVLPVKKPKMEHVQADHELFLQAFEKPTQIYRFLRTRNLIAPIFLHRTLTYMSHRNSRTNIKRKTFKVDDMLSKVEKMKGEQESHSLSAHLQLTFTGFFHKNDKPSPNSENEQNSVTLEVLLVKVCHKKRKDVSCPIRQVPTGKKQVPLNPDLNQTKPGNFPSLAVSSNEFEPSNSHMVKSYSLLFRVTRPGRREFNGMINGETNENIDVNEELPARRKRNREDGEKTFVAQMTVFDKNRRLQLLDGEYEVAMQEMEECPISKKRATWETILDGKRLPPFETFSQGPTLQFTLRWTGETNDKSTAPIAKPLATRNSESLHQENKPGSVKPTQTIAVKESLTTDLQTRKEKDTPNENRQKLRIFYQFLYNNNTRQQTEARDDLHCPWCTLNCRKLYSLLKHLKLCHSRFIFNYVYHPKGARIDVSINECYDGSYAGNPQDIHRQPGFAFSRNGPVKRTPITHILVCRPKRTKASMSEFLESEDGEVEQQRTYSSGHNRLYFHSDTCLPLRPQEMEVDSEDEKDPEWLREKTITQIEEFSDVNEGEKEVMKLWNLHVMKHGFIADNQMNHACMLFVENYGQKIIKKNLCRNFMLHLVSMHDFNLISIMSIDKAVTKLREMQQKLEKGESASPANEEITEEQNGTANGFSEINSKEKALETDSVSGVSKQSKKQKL
T1 sequence (O75530 whole entry partner, species assumed): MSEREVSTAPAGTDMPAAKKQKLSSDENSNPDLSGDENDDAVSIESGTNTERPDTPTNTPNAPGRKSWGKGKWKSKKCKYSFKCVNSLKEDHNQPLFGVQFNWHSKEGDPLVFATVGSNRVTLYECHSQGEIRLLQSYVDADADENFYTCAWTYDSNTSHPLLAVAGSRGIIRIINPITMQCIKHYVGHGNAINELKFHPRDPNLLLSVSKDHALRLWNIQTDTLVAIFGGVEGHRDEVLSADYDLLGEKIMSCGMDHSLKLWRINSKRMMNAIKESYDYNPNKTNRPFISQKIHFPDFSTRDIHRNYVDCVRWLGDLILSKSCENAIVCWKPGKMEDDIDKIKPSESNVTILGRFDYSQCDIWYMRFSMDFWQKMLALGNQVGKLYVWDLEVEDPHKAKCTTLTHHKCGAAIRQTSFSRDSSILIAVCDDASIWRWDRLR

## ClC(Cl)(Cl)Cl [CCl4, carbon tetrachloride]
[1]; harvested after 1 week
  Organoid histology after 1 week of CCl4 treatment: lack of nucleated human hepatocytes within the organoids and early signs of fibrosis
[1]; harvested after 3 weeks
  Organoid histology after 3 weeks of CCl4 treatment: higher number of proliferating stromal and endothelial cells

## TGFβ
LX-2
  EZH2 activity and PRC machinery (Suz12, H3K27me3): induced EZH2 activity and PRC machinery

## CC[C@H](C)n1cc(C)c2c(C(=O)NCc3c(C)cc(C)[nH]c3=O)cc(-c3ccc(N4CCNCC4)nc3)cc21 [GSK-126]
EZH2 [2]; myofibroblasts transitioned from Mesenchymal Stem Cells, treated with GSK-126, FIG. 4F
  Densitometry of EZH2 marker (H3K27me3): activity of EZH2: effective decrease in activity of EZH2
EZH2 [2]; tumor-associated fibroblasts (TAF), Western blot, FIG. 4E, 4F
  H2K27me3 after incubation with GSK-126: complete loss of H2K27me3
EZH2 [3]
  Prevention of H3K27me3: effective at preventing H3K27me3
[4]
  Cell death: resulted in cell death
[5]
  Lethality: non-lethal, even at high doses
